How the values were obtained:
[1] = tested on: galium (catchweed bedstraw, Galium aparine); assay: Test A postemergence, visual injury rating 0-100; type: in vivo; details: 0 to 100 scale
[2] = tested on: kochia (Kochia scoparia); assay: Test A postemergence, visual injury rating 0-100; type: in vivo; details: 0 to 100 scale
[3] = tested on: ryegrass, Italian (Italian ryegrass, Lolium multiflorum); assay: Test A postemergence, visual injury rating 0-100; type: in vivo; details: 0 to 100 scale
[4] = tested on: corn (Zea mays); assay: Test A postemergence, visual injury rating 0-100; type: in vivo; details: 0 to 100 scale
[5] = tested on: blackgrass (Alopecurus myosuroides); assay: Test A postemergence, visual injury rating 0-100; type: in vivo; details: 0 to 100 scale
[6] = tested on: foxtail, giant (giant foxtail, Setaria faberii); assay: Test A postemergence, visual injury rating 0-100; type: in vivo; details: 0 to 100 scale
[7] = tested on: barnyardgrass (Echinochloa crus-galli); assay: Test A postemergence, visual injury rating 0-100; type: in vivo; details: 0 to 100 scale
[8] = tested on: ragweed (common ragweed, Ambrosia elatior); assay: Test A postemergence, visual injury rating 0-100; type: in vivo; details: 0 to 100 scale
[9] = tested on: pigweed (Amaranthus retroflexus); assay: Test A postemergence, visual injury rating 0-100; type: in vivo; details: 0 to 100 scale
[10] = tested on: wheat (Triticum aestivum); assay: Test A postemergence, visual injury rating 0-100; type: in vivo; details: 0 to 100 scale
[11] = tested on: kochia (Kochia scoparia); assay: Test A preemergence, visual injury rating 0-100; type: in vivo
[12] = tested on: ryegrass, Italian (Italian ryegrass, Lolium multiflorum); assay: Test A preemergence, visual injury rating 0-100; type: in vivo
[13] = tested on: foxtail, giant (giant foxtail, Setaria faberii); assay: Test A preemergence, visual injury rating 0-100; type: in vivo
[14] = tested on: ragweed (common ragweed, Ambrosia elatior); assay: Test A preemergence, visual injury rating 0-100; type: in vivo
[15] = tested on: pigweed (Amaranthus retroflexus); assay: Test A preemergence, visual injury rating 0-100; type: in vivo
[16] = tested on: barnyardgrass (Echinochloa crus-galli); assay: Test A preemergence, visual injury rating 0-100 (0 no effect, 100 complete control); type: in vivo
[17] = tested on: rice (Oryza sativa); assay: Test B flooded paddy test, visual rating 0-100 (0 no effect, 100 complete control); details: Flood, 250 g ai/ha, applied to paddy water, rated after 13 to 15 days
[18] = tested on: barnyardgrass (Echinochloa crus-galli); assay: Test B flooded paddy test, visual rating 0-100; details: Flood, 250 g ai/ha, applied to paddy water, rated after 13 to 15 days
[19] = tested on: ducksalad (Heteranthera limosa); assay: Test B flooded paddy test, visual rating 0-100; details: Flood, 250 g ai/ha, applied to paddy water, rated after 13 to 15 days

SMILES	Galium plant response rating ([1]; 125 g ai/ha)	Galium plant response rating ([1]; 500 g ai/ha)	Kochia plant response rating ([2]; 125 g ai/ha)	Kochia plant response rating ([2]; 500 g ai/ha)	Ryegrass, Italian plant response rating ([3]; 125 g ai/ha)	Ryegrass, Italian plant response rating ([3]; 500 g ai/ha)	Corn plant response rating ([4]; 125 g ai/ha)	Corn plant response rating ([4]; 500 g ai/ha)	Blackgrass plant response rating ([5]; 125 g ai/ha)	Blackgrass plant response rating ([5]; 500 g ai/ha)	Foxtail, Giant plant response rating ([6]; 125 g ai/ha)	Foxtail, Giant plant response rating ([6]; 500 g ai/ha)	Barnyardgrass plant response rating ([7]; 125 g ai/ha)	Barnyardgrass plant response rating ([7]; 500 g ai/ha)	Ragweed plant response rating ([8]; 125 g ai/ha)	Ragweed plant response rating ([8]; 500 g ai/ha)	Pigweed plant response rating ([9]; 125 g ai/ha)	Pigweed plant response rating ([9]; 500 g ai/ha)	Wheat plant response rating ([10]; 125 g ai/ha)	Wheat plant response rating ([10]; 500 g ai/ha)	other results
CC1=[N+]([O-])C(C(=O)Nc2cccc(F)c2F)C(c2cc(C)n(Cc3ccc(Cl)cc3)c(=O)c2)C1 (racemic) [Compound 86]	0	0	0	0	0	0	0	10	0	0	0	0	0	0	0	0	0	0	0	0	Kochia plant response rating (0 to 100 scale) ([11]; 125 g ai/ha): 0; Kochia plant response rating (0 to 100 scale) ([11]; 500 g ai/ha): 0; Ryegrass, Italian plant response rating (0 to 100 scale) ([12]; 125 g ai/ha): 0; Ryegrass, Italian plant response rating (0 to 100 scale) ([12]; 500 g ai/ha): 0; Foxtail, Giant plant response rating (0 to 100 scale) ([13]; 125 g ai/ha): 0; Foxtail, Giant plant response rating (0 to 100 scale) ([13]; 500 g ai/ha): 0; Ragweed plant response rating (0 to 100 scale) ([14]; 125 g ai/ha): 0; Ragweed plant response rating (0 to 100 scale) ([14]; 500 g ai/ha): 0; Pigweed plant response rating (0 to 100 scale) ([15]; 125 g ai/ha): 0; Pigweed plant response rating (0 to 100 scale) ([15]; 500 g ai/ha): 0; Barnyardgrass plant response rating (0 to 100 scale) ([16]; 125 g ai/ha): 0; Barnyardgrass plant response rating (0 to 100 scale) ([16]; 500 g ai/ha): 0; Rice plant response rating (0 to 100 scale) [17]: 0; Barnyardgrass plant response rating (0 to 100 scale) [18]: 0; Ducksalad plant response rating (0 to 100 scale) [19]: 0
CC1=[N+]([O-])C(C(=O)Nc2cccc(F)c2F)C(c2ccc(C(F)(F)F)c(C)c2)C1 (racemic) [Compound 87]	0	70	10	70	70	90	70	80	70	90	60	90	80	90	10	30	0	50	70	80	Kochia plant response rating (0 to 100 scale) ([11]; 125 g ai/ha): 10; Kochia plant response rating (0 to 100 scale) ([11]; 500 g ai/ha): 80; Ryegrass, Italian plant response rating (0 to 100 scale) ([12]; 125 g ai/ha): 90; Ryegrass, Italian plant response rating (0 to 100 scale) ([12]; 500 g ai/ha): 90; Foxtail, Giant plant response rating (0 to 100 scale) ([13]; 125 g ai/ha): 90; Foxtail, Giant plant response rating (0 to 100 scale) ([13]; 500 g ai/ha): 90; Ragweed plant response rating (0 to 100 scale) ([14]; 125 g ai/ha): 0; Ragweed plant response rating (0 to 100 scale) ([14]; 500 g ai/ha): 70; Pigweed plant response rating (0 to 100 scale) ([15]; 125 g ai/ha): 100; Pigweed plant response rating (0 to 100 scale) ([15]; 500 g ai/ha): 100; Barnyardgrass plant response rating (0 to 100 scale) ([16]; 125 g ai/ha): 90; Barnyardgrass plant response rating (0 to 100 scale) ([16]; 500 g ai/ha): 90; Rice plant response rating (0 to 100 scale) [17]: 0; Barnyardgrass plant response rating (0 to 100 scale) [18]: 50; Ducksalad plant response rating (0 to 100 scale) [19]: 85
CC1=[N+]([O-])C(C(=O)Nc2cccc(F)c2F)C(c2ccc(C(F)(F)F)cn2)C1 (racemic) [Compound 88]	20	50	0	30	0	0	0	0	10	30	0	10	0	50	0	10	0	0	0	0	Kochia plant response rating (0 to 100 scale) ([11]; 125 g ai/ha): 10; Kochia plant response rating (0 to 100 scale) ([11]; 500 g ai/ha): 70; Ryegrass, Italian plant response rating (0 to 100 scale) ([12]; 125 g ai/ha): 0; Ryegrass, Italian plant response rating (0 to 100 scale) ([12]; 500 g ai/ha): 0; Foxtail, Giant plant response rating (0 to 100 scale) ([13]; 125 g ai/ha): 20; Foxtail, Giant plant response rating (0 to 100 scale) ([13]; 500 g ai/ha): 90; Ragweed plant response rating (0 to 100 scale) ([14]; 125 g ai/ha): 0; Ragweed plant response rating (0 to 100 scale) ([14]; 500 g ai/ha): 80; Pigweed plant response rating (0 to 100 scale) ([15]; 125 g ai/ha): 0; Pigweed plant response rating (0 to 100 scale) ([15]; 500 g ai/ha): 60; Barnyardgrass plant response rating (0 to 100 scale) ([16]; 125 g ai/ha): 20; Barnyardgrass plant response rating (0 to 100 scale) ([16]; 500 g ai/ha): 90; Rice plant response rating (0 to 100 scale) [17]: 15; Barnyardgrass plant response rating (0 to 100 scale) [18]: 15; Ducksalad plant response rating (0 to 100 scale) [19]: 100
CC1=[N+]([O-])C(C(=O)Nc2cccc(F)c2F)C(c2ccc(C(F)(F)F)c(Cl)c2)C1 (racemic) [Compound 102]	50	70	30	40	40	50	40	40	60	80	70	80	70	80	20	50	30	70	20	40	Kochia plant response rating (0 to 100 scale) ([11]; 125 g ai/ha): 10; Kochia plant response rating (0 to 100 scale) ([11]; 500 g ai/ha): 80; Ryegrass, Italian plant response rating (0 to 100 scale) ([12]; 125 g ai/ha): 70; Ryegrass, Italian plant response rating (0 to 100 scale) ([12]; 500 g ai/ha): 90; Foxtail, Giant plant response rating (0 to 100 scale) ([13]; 125 g ai/ha): 90; Foxtail, Giant plant response rating (0 to 100 scale) ([13]; 500 g ai/ha): 90; Ragweed plant response rating (0 to 100 scale) ([14]; 125 g ai/ha): 50; Ragweed plant response rating (0 to 100 scale) ([14]; 500 g ai/ha): 80; Pigweed plant response rating (0 to 100 scale) ([15]; 125 g ai/ha): 60; Pigweed plant response rating (0 to 100 scale) ([15]; 500 g ai/ha): 90; Barnyardgrass plant response rating (0 to 100 scale) ([16]; 125 g ai/ha): 80; Barnyardgrass plant response rating (0 to 100 scale) ([16]; 500 g ai/ha): 90; Rice plant response rating (0 to 100 scale) [17]: 0; Barnyardgrass plant response rating (0 to 100 scale) [18]: 0; Ducksalad plant response rating (0 to 100 scale) [19]: 0
CC1=[N+]([O-])C(C(=O)Nc2cccc(F)c2F)C(c2cc(C)cc(F)c2)C1 (racemic) [Compound 103]	0	50	0	30	50	70	50	60	80	70	80	90	80	90	40	40	0	50	20	70	Kochia plant response rating (0 to 100 scale) ([11]; 125 g ai/ha): 10; Kochia plant response rating (0 to 100 scale) ([11]; 500 g ai/ha): 80; Ryegrass, Italian plant response rating (0 to 100 scale) ([12]; 500 g ai/ha): 90; Foxtail, Giant plant response rating (0 to 100 scale) ([13]; 125 g ai/ha): 90; Foxtail, Giant plant response rating (0 to 100 scale) ([13]; 500 g ai/ha): 100; Ragweed plant response rating (0 to 100 scale) ([14]; 125 g ai/ha): 60; Ragweed plant response rating (0 to 100 scale) ([14]; 500 g ai/ha): 90; Pigweed plant response rating (0 to 100 scale) ([15]; 125 g ai/ha): 30; Pigweed plant response rating (0 to 100 scale) ([15]; 500 g ai/ha): 70; Barnyardgrass plant response rating (0 to 100 scale) ([16]; 125 g ai/ha): 90; Barnyardgrass plant response rating (0 to 100 scale) ([16]; 500 g ai/ha): 90; Rice plant response rating (0 to 100 scale) [17]: 0; Barnyardgrass plant response rating (0 to 100 scale) [18]: 65; Ducksalad plant response rating (0 to 100 scale) [19]: 80

Reference: patent publication US11498899B2, “Nitrone herbicides” (FMC Corporation, priority 2016, dated 2022)
